According to patent US12129257B1, “Imidazo[1,2-a]pyrazine compounds as CK2 inhibitors” (KING FAISAL UNIVERSITY, priority 2023, dated 2024):

Tests used:
MDA-MB-231 (breast) = assay: In vitro cytotoxic activity (MTT) assay, MDA-MB-231; type: cell-based; conditions: Homo sapiens; MDA-MB-231 (breast) cells, exposed for 96 hours; read-out: IC50, 50% inhibition of cell proliferation
Protocol: (§1) Compounds 1a-12a and 1b-12b were screened for their in vitro cytotoxic activity utilizing a 3-(4,5-dimethyl-thiazol-2-yl)-2,5-diphenyltetrazolium bromide (MTT) assay against selected cancer human cell lines consisting of PC3 (prostate), HCT116 (colon), A375 (melanoma), H1299 (lung), MIAPaCa-2 (pancreas), HL60 (leukemia), MCF7 (breast), MDA-MB-231 (breast) (T. Mosmann, J. Immunol. Meth., 1983, 65, 55-63). The cells were cultured at 37° C. in RMPI1640 medium supplemented with 10% fetal bovine serum, 50 IU/mL penicillin, and 50 μg/mL streptomycin in a 5% CO2 incubator. All cells were sub-cultured 3 times/week by trypsinisation. Viable cells were seeded and allowed to adhere for 12 h before a test drug was added in 96-well plates at an initial density of 1.0×10^5 cells/mL. Tumor cell lines were separately exposed to various concentrations of the tested compounds followed by incubation at a temperature of 37° C. during 96 hours inside a medium of fresh RMPI1640. Cells were subsequently incubated at 37° C. using MTT at 0.5 mg/mL during 4 hours. After removal of supernatant, formazan crystals were dissolved in isopropanol and the optical density was measured at 570 nm. CX-4945 was used as a positive control.

MCF7 (breast) = assay: In vitro cytotoxic activity (MTT) assay, MCF7; type: cell-based; conditions: Homo sapiens; MCF7 (breast) cells, exposed for 96 hours; read-out: IC50, 50% inhibition of cell proliferation
Protocol: as §1

HL60 (leukemia) = assay: In vitro cytotoxic activity (MTT) assay, HL60; type: cell-based; conditions: Homo sapiens, HL-60; HL60 (leukemia) cells, exposed for 96 hours; read-out: IC50, 50% inhibition of cell proliferation
Protocol: as §1

PC3 (prostate) = assay: In vitro cytotoxic activity (MTT) assay, PC3; type: cell-based; conditions: Homo sapiens, Prostate cell; PC3 (prostate) cells, exposed for 96 hours; read-out: IC50, 50% inhibition of cell proliferation
Protocol: as §1

HCT116 (colon) = assay: In vitro cytotoxic activity (MTT) assay, HCT116; type: cell-based; conditions: Homo sapiens, HCT-116; HCT116 (colon) cells, exposed for 96 hours; read-out: IC50, 50% inhibition of cell proliferation
Protocol: as §1

[1] = molecular target: T1, recombinant human CK2 (RRBB-holoenzyme) (Homo sapiens, UniProt P68400); assay: CK2 Kinase Assay (33P-ATP, filter plate); type: biochemical; conditions: recombinant human CK2, final ATP concentration 15 μM, 10 min at 30° C.; read-out: protein kinase CK2 activity IC50
T1 construct: purchased Millipore
Protocol: CK2 Kinase Assay was conducted using the protocol as described in Pierre F. et al; J. Med. Chem. 2011, 54, 635-654. The tested compounds in aqueous solution were added at a volume of 10 μL to a reaction mixture comprising 10 μL of assay dilution buffer (ADB; 20 mM MOPS, pH 7.2, 25 mM β-glycerol phosphate, 5 mM EGTA, 1 mM sodium orthovanadate, and 1 mM dithiothreitol), 10 μL of substrate peptide (RRRDDDSDDD, dissolved in ADB at a concentration of 1 mM), 10 μL of recombinant human CK2 (RRBB-holoenzyme, 25 ng dissolved in ADB; Millipore). Reactions were initiated by the addition of 10 μL of ATP solution (90%75 mMMgCl2, 75 μM ATP (final ATP concentration: 15 μM) dissolved in ADB; 10% [γ-33P] ATP (stock 1mCi/100 μL; 3000 Ci/mmol (Perkin-Elmer) and maintained for 10 min at 30° C. The reactions were quenched with 100 μL of 0.75% phosphoric acid and then transferred to and filtered through a phosphor cellulose filter plate (Millipore). After washing each well five times with 0.75% phosphoric acid, the plate was dried under vacuum for 5 min and, following the addition of 15 μL of scintillation fluid to each well, the residual radioactivity was measured using a Wallac luminescence counter. The IC50 values were derived from eight concentrations of test inhibitors.

A375 (melanoma) = assay: In vitro cytotoxic activity (MTT) assay, A375; type: cell-based; conditions: Homo sapiens, A-375; A375 (melanoma) cells, exposed for 96 hours; read-out: IC50, 50% inhibition of cell proliferation
Protocol: as §1

MIAPaCa-2 (pancreas) = assay: In vitro cytotoxic activity (MTT) assay, MIAPaCa-2; type: cell-based; conditions: Homo sapiens, MIA PaCa-2; MIAPaCa-2 (pancreas) cells, exposed for 96 hours; read-out: IC50, 50% inhibition of cell proliferation
Protocol: as §1

H1299 (lung) = assay: In vitro cytotoxic activity (MTT) assay, H1299; type: cell-based; conditions: Homo sapiens, NCI-H1299; H1299 (lung) cells, exposed for 96 hours; read-out: IC50, 50% inhibition of cell proliferation
Protocol: as §1

T1 sequence (P68400 whole entry): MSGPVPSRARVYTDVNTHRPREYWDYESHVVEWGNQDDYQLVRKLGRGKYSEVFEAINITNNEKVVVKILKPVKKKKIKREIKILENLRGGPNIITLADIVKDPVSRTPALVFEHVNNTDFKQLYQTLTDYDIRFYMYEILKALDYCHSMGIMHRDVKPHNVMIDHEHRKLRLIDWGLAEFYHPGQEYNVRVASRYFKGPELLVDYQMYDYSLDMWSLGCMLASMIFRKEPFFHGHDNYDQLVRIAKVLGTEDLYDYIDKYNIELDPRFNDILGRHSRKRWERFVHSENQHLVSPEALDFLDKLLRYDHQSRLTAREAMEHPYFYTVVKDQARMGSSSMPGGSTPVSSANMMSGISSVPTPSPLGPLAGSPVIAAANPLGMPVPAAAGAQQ
T1 sequence (P67870 whole entry partner): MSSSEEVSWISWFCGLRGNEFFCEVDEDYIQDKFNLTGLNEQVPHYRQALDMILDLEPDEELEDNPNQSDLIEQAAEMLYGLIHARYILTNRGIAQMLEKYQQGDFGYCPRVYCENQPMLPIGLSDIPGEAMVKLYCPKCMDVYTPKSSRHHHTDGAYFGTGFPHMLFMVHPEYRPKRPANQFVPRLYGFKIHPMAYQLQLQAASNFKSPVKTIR

IC50 [1]	Structure (SMILES)	IC50 (MDA-MB-231 (breast))	IC50 (MCF7 (breast))	IC50 (HL60 (leukemia))	IC50 (PC3 (prostate))	IC50 (HCT116 (colon))	IC50 (A375 (melanoma))	IC50 (MIAPaCa-2 (pancreas))	IC50 (H1299 (lung))
115 nM	FC(F)(F)c1cccc(Nc2c(-c3ccncc3)nc3cnccn23)c1 [Compound 3a, 2-(pyridin-4-yl)-N-(3-(trifluoromethyl)phenyl)imidazo[1,2-a]pyrazin-3-amine]	4600 nM	5100 nM	4400 nM	1200 nM	1700 nM	3400 nM	1300 nM	1500 nM
	O=C(O)c1ccc2c(c1)nc(Nc1cccc(Cl)c1)c1ccncc12 [CX-4945, Silmitasertib, reference compound]	6200 nM	9100 nM	3700 nM	2000 nM	2300 nM	4100 nM	1000 nM	2300 nM
98 nM	FC(F)(F)c1cccc(Nc2c(-c3ccncn3)nc3cnccn23)c1 [Compound 2b, 2-(pyrimidin-4-yl)-N-(3-(trifluoromethyl)phenyl)imidazo[1,2-a]pyrazin-3-amine]	4200 nM	5000 nM	4500 nM	1400 nM	1500 nM	3500 nM	1600 nM	1200 nM
